{"source": "paper doi:10.1101/2025.03.27.645769", "about": "“Structural Insights into Kainate Receptor Desensitization” (bioRxiv, 2025)", "target": "T1, GluK2 (Rattus norvegicus, UniProt P42260)", "T1 construct": "gene Grik2; wild-type rat GluK2 expressed in HEK293T cells", "T1 sequence (P42260 32-908)": "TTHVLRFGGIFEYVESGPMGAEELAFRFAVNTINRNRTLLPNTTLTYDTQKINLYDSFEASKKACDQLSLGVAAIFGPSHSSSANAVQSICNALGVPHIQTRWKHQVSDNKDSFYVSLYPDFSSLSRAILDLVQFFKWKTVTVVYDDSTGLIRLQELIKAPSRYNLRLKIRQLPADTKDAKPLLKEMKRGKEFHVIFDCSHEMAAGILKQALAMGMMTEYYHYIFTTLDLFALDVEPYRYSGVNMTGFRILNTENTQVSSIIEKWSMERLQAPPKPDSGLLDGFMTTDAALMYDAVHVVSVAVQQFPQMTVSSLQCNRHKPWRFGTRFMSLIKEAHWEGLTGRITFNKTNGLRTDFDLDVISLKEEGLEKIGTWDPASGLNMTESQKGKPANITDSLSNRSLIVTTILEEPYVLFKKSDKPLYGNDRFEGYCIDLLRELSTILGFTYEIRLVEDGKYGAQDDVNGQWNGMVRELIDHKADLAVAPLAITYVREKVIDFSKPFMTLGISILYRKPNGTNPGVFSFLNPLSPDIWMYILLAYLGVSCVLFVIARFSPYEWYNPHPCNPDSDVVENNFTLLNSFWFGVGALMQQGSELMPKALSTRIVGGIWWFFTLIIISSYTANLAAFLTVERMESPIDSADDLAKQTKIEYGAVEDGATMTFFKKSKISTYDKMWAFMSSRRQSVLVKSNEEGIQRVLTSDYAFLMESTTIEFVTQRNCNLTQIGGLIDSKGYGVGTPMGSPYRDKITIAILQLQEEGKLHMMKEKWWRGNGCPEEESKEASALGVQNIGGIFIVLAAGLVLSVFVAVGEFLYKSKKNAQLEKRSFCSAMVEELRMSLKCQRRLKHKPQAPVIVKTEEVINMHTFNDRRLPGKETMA", "assay": "whole-cell patch-clamp, potentiation of glutamate-evoked peak current", "format": "cell-based"}
{"smiles": "O=S1(=O)NCN(C2CC2)c2ccc(F)cc21", "note": "[BPAM344]", "values": [{"measurement": "whole-cell patch-clamp, potentiation of glutamate-evoked peak current", "value": "Potentiation of the peak current amplitudes (Ipeak) of GluK2 WT (left)"}]}
